Measurements as given in patent publication US20150285818A1, “Switchable Reporter Enzymes for Homogenous Antibody Detection” (TECHNISCHE UNIVERSITEIT EINDHOVEN, priority 2012, published 2015).
“And” between values parts separate entries of the source, which are not always exact repeats. Equal entries are not always repeated. Where two headings read alike, the source gives them in different places. Fluorescein = fluorescein label attached to a cysteine side chain

What was measured:
anti-Dengue-1 antibody = assay: Peptide binding assay using fluorescence polarization, anti-Dengue-1; conditions: read-out: Kd, fluorescence polarization titration (Eq. 8); 10 nM fluorescein-labeled peptide titrated with antibody
anti-HIV1-p17 antibody = assay: Peptide binding assay using fluorescence polarization, anti-HIV1-p17
anti-HA antibody = assay: Peptide binding assay using fluorescence polarization, anti-HA
[1] = read-out: Kd, fluorescence polarization titration (Eq. 8), 10 nM fluorescein-labeled short epitope peptide titrated with antibody

EHKYSWKS
Kd (anti-Dengue-1 antibody): 70 nM

EHKYSWKS-GGG-C(Fluorescein)
Kd (anti-Dengue-1 antibody): 70 ± 13 nM

ELDRWEKIRLRP
Kd (anti-HIV1-p17 antibody; read-out: Kd (Kd1) of non-labeled peptide, competition assay (Eqs. 9 and 10), antibody and fluorescein-labeled peptide 100 nM each, titrated with non-labeled peptide): 42 ± 1 nM

ELDRWEKIRLRP-GGG-C(Fluorescein)
Kd (anti-HIV1-p17 antibody; read-out: Kd, fluorescence polarization titration (Eq. 8), 10 nM fluorescein-labeled peptide titrated with antibody): 24 ± 3 nM

WEKIRLR
Kd (anti-HIV1-p17 antibody; [1]): ~3000 nM and 3300 nM

WEKIRLR-GGG-C(Fluorescein) (Ac-WEKIRLRGGGC(Fluorescein)-NH2)
Kd (anti-HIV1-p17 antibody; [1]): 3300 ± 200 nM

YPYDVPDYA
Kd (anti-HA antibody; read-out: Kd (Kd1) of non-labeled peptide, competition assay (Eqs. 9 and 10), antibody and fluorescein-labeled peptide 10 nM each, titrated with non-labeled peptide): 4.5 nM and ~5 nM

YPYDVPDYA-GGG-C(Fluorescein)
Kd (anti-HA antibody; read-out: Kd, fluorescence polarization titration (Eq. 8), 2 nM fluorescein-labeled peptide titrated with antibody): 0.58 ± 0.22 nM
